A short description of this series: Chemical stability (RP-HPLC normalized purity after incubation at 40° C.). The series is classed as physicochemical. The note with it: 14-day incubation, 0.2 mg/ml, normalized purity (area-%); for pH 7 normalized stability: pH 7, 40° C. The procedure: Samples of each test peptide were dissolved in MILLIQ™ water, and the pH of the solution was adjusted to pH 6, 7, 7.5 or 9 using either HCl or NaOH. The final peptide concentration was 0.2 mg/ml. Samples were placed in glass vials and incubated at 40° C. The samples were analyzed by RP-HPLC on a C18 column with gradient elution using an acetonitrile/TFA/water eluent system. The area-percentage (area-%) of the main peak after incubation time T=t (relative to time T=0) was determined by UV spectroscopy at 220 nm.
The purity was first determined as follows: Purity(area-%)=(area of main peak/total area of all peaks)×100.
The purity was then normalized between time points by setting purity at time 0 (T=0) to 100 for each pH value for a given peptide, as follows: Normalized area-% at time t(T=t)=[area-%(T=t)/area-%(T=0)]×100.
The chemical stability assessment results after 14-day incubation (in the form of normalized purity values) are summarized in Table 4.

From patent US11395847B2, “Acylated GLP-1/GLP-2 dual agonists” (Zealand Pharma A/S, priority 2016, dated 2022) come the findings set out here.

*1 amine or outer side, *2 acyl side, *3 side chain or, on linkers, in order; H or OH if unused. Where a SMILES comes first, the peptide text is derived from it. Side-chain parts run from the residue outwards. [ ]: non-standard residue; d: D form. The star is where a group is joined. C20 diacid = O=C(O)CCCCCCCCCCCCCCCCCCC(=O)*; γGlu = O=C(O)[C@H](CCC(=O)[*:2])N[*:1]; AEEA = NCCOCCOCC(=O)O; Aib = CC(C)(N)C(=O)O

In the case of `CC[C@H](C)[C@H](NC(=O)[C@H](Cc1ccccc1)NC(=O)[C@H](CC(=O)O)NC(=O)[C@H](CCCNC(=N)N)NC(=O)[C@H](C)NC(=O)[C@H](C)NC(=O)[C@H](CCC(N)=O)NC(=O)[C@H](CCC(=O)O)NC(=O)[C@H](CC(=O)O)NC(=O)[C@H](CC(C)C)NC(=O)[C@@H](NC(=O)[C@@H](NC(=O)[C@H](C)NC(=O)[C@H](CCCCNC(=O)COCCOCCNC(=O)[C@H](CCCCN)NC(=O)[C@H](CCC(=O)O)NC(=O)[C@H](CCCCN)NC(=O)CC[C@H](NC(=O)CCCCCCCCCCCCCCCCCCC(=O)O)C(=O)O)NC(=O)[C@H](CCC(=O)O)NC(=O)[C@H](CO)NC(=O)[C@@H](NC(=O)[C@H](Cc1ccccc1)NC(=O)[C@H](CO)NC(=O)CNC(=O)[C@H](CCC(=O)O)NC(=O)C(C)(C)NC(=O)[C@@H](N)Cc1c[nH]cn1)[C@@H](C)O)[C@@H](C)O)[C@@H](C)CC)C(=O)N[C@@H](C)C(=O)N[C@@H](Cc1c[nH]c2ccccc12)C(=O)N[C@@H](CC(C)C)C(=O)N[C@H](C(=O)N[C@@H](CCC(=O)O)C(=O)N[C@@H](Cc1c[nH]cn1)C(=O)N[C@@H](CCCCN)C(=O)N[C@H](C(=O)N[C@H](C(=O)N[C@@H](CC(=O)O)C(=O)O)[C@@H](C)O)[C@@H](C)CC)[C@@H](C)CC` [Compound 53] (HELM PEPTIDE1{H.[Aib].E.G.S.F.T.S.E.K.A.T.I.L.D.E.Q.A.A.R.D.F.I.A.W.L.I.E.H.K.I.T.D}|PEPTIDE2{[O=C(O)CCCCCCCCCCCCCCCCCCC(=O)[*:2]].[gGlu].K.E.K.[O=C(COCCOCCN[*:1])[*:2]]}$PEPTIDE1,PEPTIDE2,10:R3-6:R2$$$V2.0), the “pH 7 normalized stability” value is reported as “A (>90% normalised stability)”. Still for that read-out and setting: with `CC[C@H](C)[C@H](NC(=O)[C@H](Cc1ccccc1)NC(=O)[C@H](CC(=O)O)NC(=O)[C@H](CCCNC(=N)N)NC(=O)[C@H](C)NC(=O)[C@H](C)NC(=O)[C@H](CCC(N)=O)NC(=O)[C@H](CCCCNC(=O)COCCOCCNC(=O)COCCOCCNC(=O)CC[C@H](NC(=O)CCCCCCCCCCCCCCCCCCC(=O)O)C(=O)O)NC(=O)[C@H](CC(=O)O)NC(=O)[C@H](CC(C)C)NC(=O)[C@@H](NC(=O)[C@@H](NC(=O)[C@H](C)NC(=O)[C@H](CC(C)C)NC(=O)[C@H](CCC(=O)O)NC(=O)[C@H](CO)NC(=O)[C@@H](NC(=O)[C@H](Cc1ccccc1)NC(=O)[C@H](CO)NC(=O)CNC(=O)[C@H](CCC(=O)O)NC(=O)C(C)(C)NC(=O)[C@@H](N)Cc1c[nH]cn1)[C@@H](C)O)[C@@H](C)O)[C@@H](C)CC)C(=O)N[C@@H](C)C(=O)N[C@@H](Cc1c[nH]c2ccccc12)C(=O)N[C@@H](CC(C)C)C(=O)N[C@@H](CCCCN)C(=O)N[C@@H](CCC(N)=O)C(=O)N[C@@H](Cc1c[nH]cn1)C(=O)N[C@@H](CCCCN)C(=O)N[C@H](C(=O)N[C@H](C(=O)N[C@@H](CC(=O)O)C(=O)O)[C@@H](C)O)[C@@H](C)CC` [Compound 34] (H-H[Aib]EGSFTSELATILDK([AEEA-AEEA-γGlu-C20 diacid])QAARDFIAWLKQHKITD-OH) the entry was “A (>90% normalised stability)”; with `CC[C@H](C)[C@H](NC(=O)[C@H](Cc1ccccc1)NC(=O)[C@H](CC(=O)O)NC(=O)[C@H](CCCNC(=N)N)NC(=O)[C@H](C)NC(=O)[C@H](C)NC(=O)[C@H](CCC(N)=O)NC(=O)[C@H](CCC(=O)O)NC(=O)[C@H](CC(=O)O)NC(=O)[C@H](CC(C)C)NC(=O)[C@@H](NC(=O)[C@@H](NC(=O)[C@H](C)NC(=O)[C@H](CCCCNC(=O)COCCOCCNC(=O)COCCOCCNC(=O)[C@H](CCCCN)NC(=O)[C@H](CCC(=O)O)NC(=O)[C@H](CCCCN)NC(=O)CC[C@H](NC(=O)CCCCCCCCCCCCCCCCCCC(=O)O)C(=O)O)NC(=O)[C@H](CCC(=O)O)NC(=O)[C@H](CO)NC(=O)[C@@H](NC(=O)[C@H](Cc1ccccc1)NC(=O)[C@H](CO)NC(=O)CNC(=O)[C@H](CCC(=O)O)NC(=O)C(C)(C)NC(=O)[C@@H](N)Cc1c[nH]cn1)[C@@H](C)O)[C@@H](C)O)[C@@H](C)CC)C(=O)N[C@@H](C)C(=O)N[C@@H](Cc1c[nH]c2ccccc12)C(=O)N[C@@H](CC(C)C)C(=O)N[C@H](C(=O)N[C@@H](CCC(=O)O)C(=O)N[C@@H](Cc1c[nH]cn1)C(=O)N[C@@H](CCCCN)C(=O)N[C@H](C(=O)N[C@H](C(=O)N[C@@H](CC(=O)O)C(=O)O)[C@@H](C)O)[C@@H](C)CC)[C@@H](C)CC` [Compound 55] (H-H[Aib]EGSFTSEK([AEEA-AEEA-Lys-Glu-Lys-γGlu-C20 diacid])ATILDEQAARDFIAWLIEHKITD-OH), “A (>90% normalised stability)”. With `CC[C@H](C)[C@H](NC(=O)[C@H](Cc1ccccc1)NC(=O)[C@H](CC(=O)O)NC(=O)[C@H](CCCCNC(=O)COCCOCCNC(=O)COCCOCCNC(=O)[C@H](CCCCN)NC(=O)[C@H](CCC(=O)O)NC(=O)[C@H](CCCCN)NC(=O)CC[C@H](NC(=O)CCCCCCCCCCCCCCCCCCC(=O)O)C(=O)O)NC(=O)[C@H](C)NC(=O)[C@H](C)NC(=O)[C@H](CCC(N)=O)NC(=O)[C@H](CCC(=O)O)NC(=O)[C@H](CC(=O)O)NC(=O)[C@H](CC(C)C)NC(=O)[C@@H](NC(=O)[C@@H](NC(=O)[C@H](C)NC(=O)[C@H](CC(C)C)NC(=O)[C@H](CCC(=O)O)NC(=O)[C@H](CO)NC(=O)[C@@H](NC(=O)[C@H](Cc1ccccc1)NC(=O)[C@@H](NC(=O)CNC(=O)[C@H](CCC(=O)O)NC(=O)C(C)(C)NC(=O)[C@@H](N)Cc1c[nH]cn1)[C@@H](C)O)[C@@H](C)O)[C@@H](C)O)[C@@H](C)CC)C(=O)N[C@@H](C)C(=O)N[C@@H](Cc1c[nH]c2ccccc12)C(=O)N[C@@H](CC(C)C)C(=O)N[C@H](C(=O)N[C@@H](CCC(=O)O)C(=O)N[C@@H](Cc1c[nH]cn1)C(=O)N[C@@H](CCCCN)C(=O)N[C@H](C(=O)N[C@H](C(=O)N[C@@H](CC(=O)O)C(=O)O)[C@@H](C)O)[C@@H](C)CC)[C@@H](C)CC` [Compound 67] (H-H[Aib]EGTFTSELATILDEQAAK([AEEA-AEEA-Lys-Glu-Lys-γGlu-C20 diacid])DFIAWLIEHKITD-OH), the “pH 7 normalized stability” value is recorded as “A (>90% normalised stability)”.

As to `CC[C@H](C)[C@H](NC(=O)[C@H](Cc1ccccc1)NC(=O)[C@H](CC(=O)O)NC(=O)[C@H](CCCNC(=N)N)NC(=O)[C@H](C)NC(=O)[C@H](C)NC(=O)[C@H](CCC(N)=O)NC(=O)[C@H](CCCCNC(=O)CC[C@H](NC(=O)CCCCCCCCCCCCCCCCC(=O)O)C(=O)O)NC(=O)[C@H](CC(=O)O)NC(=O)[C@H](CC(C)C)NC(=O)[C@@H](NC(=O)[C@@H](NC(=O)[C@H](C)NC(=O)[C@H](CC(C)C)NC(=O)[C@H](CCC(=O)O)NC(=O)[C@H](CO)NC(=O)[C@H](CO)NC(=O)[C@H](Cc1ccccc1)NC(=O)[C@H](CO)NC(=O)CNC(=O)[C@H](CCC(=O)O)NC(=O)C(C)(C)NC(=O)[C@@H](N)Cc1c[nH]cn1)[C@@H](C)O)[C@@H](C)CC)C(=O)N[C@@H](C)C(=O)N[C@@H](Cc1c[nH]c2ccccc12)C(=O)N[C@@H](CC(C)C)C(=O)N[C@H](C(=O)N[C@@H](CCC(N)=O)C(=O)N[C@@H](Cc1c[nH]cn1)C(=O)N[C@@H](CCCCN)C(=O)N[C@H](C(=O)N[C@H](C(=O)N[C@@H](CC(=O)O)C(=O)O)[C@@H](C)O)[C@@H](C)CC)[C@@H](C)CC` [B, reference compound] (HELM PEPTIDE1{H.[Aib].E.G.S.F.S.S.E.L.A.T.I.L.D.K.Q.A.A.R.D.F.I.A.W.L.I.Q.H.K.I.T.D}|PEPTIDE2{[O=C(O)CCCCCCCCCCCCCCCCC(=O)[*:2]].[gGlu]}$PEPTIDE1,PEPTIDE2,16:R3-2:R2$$$V2.0), the “pH 7 normalized stability” value was “A (>90% normalised stability)”. Further, the “pH 6 normalized stability” value (pH 6, 40° C.) is on record as “A (>90% normalised stability)”.
